Measurements from patent publication US7927612B2, “Combinations and methods for treating neoplasms” (priority 2000, dated 2011).
Several values for one entry are separate records, joined by “and”; a condition that tells them apart may be missing. Equal values may be shown once.

How the values were obtained:
liver cancer cells = test: Treatment efficacy study in mice with implanted liver cancer cells: tumor volume (Example 9, Tables 14-16); format: in vivo, Kuiking mice; parameters: Everage TV1 (average tumor volume): unit not given here; conditions: control group
Experimental: Kuiking mice were used in this study. The average weight of the mice used in this study is about 23 grams. About 10^3 liver cancer cells were implanted into the left army pit of mice. […] The mice were divided into three groups: control group, therapy group and immunotherapy group. In the control group, 0.1 ml of Ara-C in normal saline was injected to the tumor via intro-tumor injection. […]

[1] = Body weight of tumor-bearing mice in the treatment efficacy study (Example 9, Tables 14-16); format: in vivo, Kuiking mice; parameters: unit: g; conditions: control group
Experimental: Kuiking mice were used in this study. The average weight of the mice used in this study is about 23 grams. About 10^3 liver cancer cells were implanted into the left army pit of mice. At about 10 days, the small tumor grew under the mice skin. At about 15 days, the tumor grew to about 1 cm size. The mice were divided into three groups: control group, therapy group and immunotherapy group. In the control group, 0.1 ml of Ara-C in normal saline was injected to the tumor via intro-tumor injection.
In the immunotherapy group, 0.1 ml of the combination of ethanol, H2O2, anticancer drug AraC, hemotoxilin and TNP in normal saline was injected to the tumor via intro-tumor injection.

[2] = Date (start), individual mice No. 1-10

In the case of Cytidine Arabinosyladenine [Ara-C], the “Everage TV1 (average tumor volume)” value (liver cancer cells; 1 d) is reported as 0.8, the “TV (tumor volume)” value (liver cancer cells; 1 d, individual mice) is reported as 1.3*0.7*0.5 = 0.455 Scm and 1.1*0.8*0.6 = 0.528 Scm and 1.4*1.1*1 = 1.54 Scm and 1*0.9*0.6 = 0.54 Scm and 1.1*1*0.7 = 0.77 Scm and 1.3*0.9*0.8 = 0.94 Scm and 1*0.7*0.7 = 0.49 Scm and 1.1*0.7*0.6 = 0.462 Scm and the “Everage TV1 (average tumor volume)” value (liver cancer cells; 2 d) is reported as 1.33. The “TV (tumor volume)” value (liver cancer cells; 2 d, individual mice) was 1.2*1.1*0.8 = 1.1 Scm and 1.2*0.9*0.5 = 0.54 Scm and 1.4*1.2*0.8 = 1.34 Scm and 1*0.8*0.6 = 0.48 Scm and 1.3*0.6*0.5 = 0.39 Scm and 1.3*1*0.8 = 1.04 Scm and 1.3*0.8*0.7 = 0.73 Scm and 1.2*1.1*0.8 = 1.06 Scm and 1.2*1*0.8 = 0.96 Scm and 1.3*0.9*0.6 = 0.702 Scm, the “Everage TV1 (average tumor volume)” value (liver cancer cells; 3 d) was 1.47 and the “TV (tumor volume)” value (liver cancer cells; 3 d, individual mice) was 1.1*1.2*0.7 = 0.924 Scm and 1.5*1.2*1 = 1.8 Scm (2×) and 1.2*0.9*0.6 = 0.648 Scm and 1.2*1.1*0.8 = 1.1 Scm and 1.2*1*0.6 = 0.72 Scm and 1.4*1.1*0.7 = 1.08 Scm and 1.4*1.2*0.8 = 1.34 Scm and 1*1*0.6 = 0.6 Scm. The “Everage TV1 (average tumor volume)” value (liver cancer cells; 4 d) was 1.47, the “TV (tumor volume)” value (liver cancer cells; 4 d, individual mice) was 1.3*1.4*1.1 = 2 Scm and 1.5*1*0.6 = 0.99 Scm and 1.6*1.4*1 = 2.24 Scm and 1.2*0.8*0.5 = 1 Scm and 1.6*1.3*1.4 = 2.9 Scm and 1.4*0.8*0.6 = 0.67 Scm and 1.5*1.2*1.1 = 1.98 Scm and 1.2*1.1*0.8 = 1.06 Scm and 1.3*1.1*0.8 = 1.14 Scm and 1*1*0.7 = 0.7 Scm and the “Everage TV1 (average tumor volume)” value (liver cancer cells; 5 d) was 1.65. For the same substance, the “TV (tumor volume)” value (liver cancer cells; 5 d, individual mice) was 1.4*1*1 = 1.4 Scm and 1.5*1.3*1 = 1.95 Scm and 1.5*1.1*0.7 = 1.16 Scm and 1.7*1.3*0.9 = 1.98 Scm and 1.2*1.2*0.7 = 1 Scm and 1.5*1.3*0.9 = 1.75 Scm and 1.7*1.4*1 = 2.38 Scm and 1.4*1.4*1 = 1.96 Scm and 1.6*1*0.8 = 1.28 Scm, the “Everage TV1 (average tumor volume)” value (liver cancer cells; 6 d) was 1.87 and the “TV (tumor volume)” value (liver cancer cells; 6 d, individual mice) was 1.3*1.1*0.8 = 1.14 Scm and 1.6*1.3*1.1 = 2.28 Scm and 1.2*1*0.5 = 0.6 Scm and 1.8*1.2*1 = 2.16 Scm and 1.3*1.5*0.6 = 1.17 Scm and 1.6*1.4*1 = 2.24 Scm and 1.9*1.6*1.2 = 3.6 Scm and 1.5*1.4*1.1 = 2.31 Scm and 1.4*1.2*0.8 = 1.34 Scm. The “Everage TV1 (average tumor volume)” value (liver cancer cells; 7 d) was 2.59, the “TV (tumor volume)” value (liver cancer cells; 7 d, individual mice) was 1.5*0.8*0.7 = 0.84 Scm and 1.8*1.6*1.5 = 4.32 Scm and 1.4*0.9*0.6 = 0.76 Scm and 1.9*1.4*1.2 = 3.19 Scm and 1.5*1.3*0.9 = 1.76 Scm and 1.9*1.5*1 = 2.85 Scm and 1.8*1.5*1.5 = 4 Scm and 1.5*1.4*1.3 = 2.73 Scm and 1.5*1.6*1.2 = 2.88 Scm and the “Everage TV1 (average tumor volume)” value (liver cancer cells; 8 d) was 2.73. The “TV (tumor volume)” value (liver cancer cells; 8 d, individual mice) was 1.3*0.9*0.7 = 0.819 Scm and 1.4*1.5*1.3 = 2.73 Scm and 1.8*1.2*1.2 = 2.59 Scm and 1.2*0.7*0.6 = 0.5 Scm and 1.5*1.5*1.2 = 2.7 Scm and 1.5*1.6*1.4 = 3.36 Scm and 1.5*1.3*1.2 = 2.34 Scm and 1.5*1.4*1.2 = 2.52 Scm and 1.5*1.2*1.1 = 1.98 Scm, the “Everage TV1 (average tumor volume)” value (liver cancer cells; 9 d) was 3.12 and the “TV (tumor volume)” value (liver cancer cells; 9 d, individual mice) was 1.5*1.2*0.9 = 1.62 Scm and 1.8*1.8*1.8 = 5.8 Scm and 1.9*1.5*1.4 = 3.99 Scm and 1.6*1.1*0.7 = 1.2 Scm and 2.1*1.5*1.4 = 4.4 Scm and 1.3*1.4*1.1 = 2 Scm and 1.7*1.4*1.1 = 2.62 Scm and 1.4*1.6*1.4 = 3.14 Scm and 1.8*1.4*1.3 = 3.28 Scm. For the same substance, the “Everage TV1 (average tumor volume)” value (liver cancer cells; Date (start)) was 0.343, the “TV (tumor volume)” value (liver cancer cells; [2]) was 0.8*0.6*0.4 = 0.192 Scm and 1*0.5*0.3 = 0.15 Scm and 1.3*0.9*0.6 = 0.7 Scm and 1*0.7*0.5 = 0.35 Scm and 0.9*0.7*0.5 = 0.32 Scm and 0.8*0.6*0.5 = 0.24 Scm and 1*0.9*0.6 = 0.54 Scm and 1*0.8*0.5 = 0.4 Scm and 0.7*0.7*0.6 = 0.294 Scm and 0.7*0.7*0.5 = 0.245 Scm and the Weight ([1]; 1 d, individual mice) was 25 (3×) and 20 and 21 and 17 and 25.5 and 18 and 23.5 and 27. For the same substance, the Weight ([1]; 2 d, individual mice) was 24 (2×) and 19 (2×) and 16.5 and 17 and 23.8 and 17.5 and 21 and 25, the Weight ([1]; 3 d, individual mice) was 22 (4×) and 17.5 and 17 and 15 and 16.5 and 20 and 23.5 and the Weight ([1]; 4 d, individual mice) was 26.5 and 24 (2×) and 28.2 and 22.8 and 15.8 and 16.5 and 26 and 20 and 28.5. The Weight ([1]; 5 d, individual mice) was 24.5 and 30 and 28.5 and 24 (2×) and 28 and 19 and 26.5 and 21.5, the Weight ([1]; 6 d, individual mice) was 23.5 and 31 and 29.5 and 24.5 and 28 (2×) and 24 and 19 and 22 and the Weight ([1]; 7 d, individual mice) was 24 (2×) and 32.5 and 29 and 24.5 and 28.5 and 19.5 and 28 and 21. For the same substance, the Weight ([1]; 8 d, individual mice) was 24.5 (3×) and 33 and 24 and 28.5 (2×) and 20 and 21, the Weight ([1]; 9 d, individual mice) was 24.5 (2×) and 33.5 and 23.5 and 28.5 (2×) and 21 and 29 and 23 and the Weight [1, 2] was 23.5 and 24 and 22.5 and 18 and 18.5 and 14 and 23 and 14.5 and 20 and 26.
